Reference: patent US8586611B2 (priority 2005, dated 2013)

Experiments:
Format in all cases: in vivo
Plasmopara viticola = experiment: Test B: grape downy mildew, spray 24 h after inoculation (disease rating, 100 = 100% disease control); conditions: sprayed 24 h after inoculation
Procedure, shortened: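 This is a curative spray test, applied 24 h after inoculation. Compounds in 50/50 acetone–water with 250 ppm Trem 014 surfactant were sprayed to run-off on P. viticola-infected seedlings, with 200 ppm equating to 500 g/ha. Plants were kept 5 days in a 20 °C growth chamber, then 24 h humid, and scored 0–100 for disease control relative to controls.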

Phytophthora infestans [1] = experiment: whole plant or invertebrate; conditions: tomato late blight, sprayed the day before inoculation
Phytophthora infestans [2] = experiment: whole plant or invertebrate; conditions: tomato late blight, sprayed 17 h after inoculation
[3] = system: Erysiphe graminis f. sp. tritici; experiment: Test E: wheat powdery mildew, spray the day before inoculation (disease rating, 100 = 100% disease control); conditions: sprayed the day before inoculation, 7 days at 20° C.
Procedure, shortened: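 Protective test: spores of E. graminis f. sp. tritici dusted on wheat seedlings one day after run-off spraying of test suspension (acetone/water with 250 ppm surfactant; 200 ppm = 500 g/ha). Ratings after 7 days in growth chamber at 20° C, 100 = full control, 0 = none, relative to controls.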

[4] = unmarked compounds (no asterisk, not 40 or 10 ppm)

## CCN(C(=O)c1csc(C2CCN(C(=O)Cc3cc(C)ccc3C)CC2)n1)[C@H](C)c1ccccc1 [compound 286]
Plasmopara viticola; [4]
  Test B disease rating (100 = 100% disease control, 0 = no disease control): 39
Phytophthora infestans [1]; [4]
  Test C disease rating (100 = 100% disease control, 0 = no disease control): 23
Phytophthora infestans [2]; [4]
  Test D disease rating (100 = 100% disease control, 0 = no disease control): 0
[3]; [4]
  Test E disease rating (100 = 100% disease control, 0 = no disease control): 52

## CCCN(C(=O)c1csc(C2CCN(C(=O)Cc3cc(C)ccc3C)CC2)n1)[C@H](C)c1ccccc1 [compound 287]
Plasmopara viticola; [4]
  Test B disease rating (100 = 100% disease control, 0 = no disease control): 0
Phytophthora infestans [1]; [4]
  Test C disease rating (100 = 100% disease control, 0 = no disease control): 50
Phytophthora infestans [2]; [4]
  Test D disease rating (100 = 100% disease control, 0 = no disease control): 0
[3]; [4]
  Test E disease rating (100 = 100% disease control, 0 = no disease control): 0

## Cc1cc(C(F)(F)F)nn1CC(=O)N1CCC(c2nc(C(=O)N3CCCC3c3ccc(Cl)cc3)cs2)CC1 (stereo not drawn) [compound 290]
Plasmopara viticola; [4]
  Test B disease rating (100 = 100% disease control, 0 = no disease control): 0
Phytophthora infestans [1]; [4]
  Test C disease rating (100 = 100% disease control, 0 = no disease control): 90
Phytophthora infestans [2]; [4]
  Test D disease rating (100 = 100% disease control, 0 = no disease control): 26
[3]; [4]
  Test E disease rating (100 = 100% disease control, 0 = no disease control): 0

## Cc1cc(C(F)(F)F)nn1CC(=O)N1C(C)CN(c2nc(C(=O)N(C)[C@@H]3CCCc4ccccc43)cs2)CC1C (stereo partly drawn) [compound 292]
Plasmopara viticola; [4]
  Test B disease rating (100 = 100% disease control, 0 = no disease control): 71
Phytophthora infestans [1]; [4]
  Test C disease rating (100 = 100% disease control, 0 = no disease control): 100
Phytophthora infestans [2]; [4]
  Test D disease rating (100 = 100% disease control, 0 = no disease control): 93
[3]; [4]
  Test E disease rating (100 = 100% disease control, 0 = no disease control): 0

## Cc1cc(C(F)(F)F)nn1CC(=O)N1CCN(c2nc(C(=O)N(C)[C@@H]3CCCc4ccccc43)cs2)CC1C (stereo partly drawn) [compound 293]
Plasmopara viticola; [4]
  Test B disease rating (100 = 100% disease control, 0 = no disease control): 100
Phytophthora infestans [1]; [4]
  Test C disease rating (100 = 100% disease control, 0 = no disease control): 100
Phytophthora infestans [2]; [4]
  Test D disease rating (100 = 100% disease control, 0 = no disease control): 99
[3]; [4]
  Test E disease rating (100 = 100% disease control, 0 = no disease control): 0

## Cc1cc(C(F)(F)F)nn1CC(=O)N1CCC(c2nc(C(=O)NC3CCCc4ccccc43)cs2)CC1 (stereo not drawn) [compound 294]
Plasmopara viticola; [4]
  Test B disease rating (100 = 100% disease control, 0 = no disease control): 99
Phytophthora infestans [1]; [4]
  Test C disease rating (100 = 100% disease control, 0 = no disease control): 100
Phytophthora infestans [2]; [4]
  Test D disease rating (100 = 100% disease control, 0 = no disease control): 96
[3]; [4]
  Test E disease rating (100 = 100% disease control, 0 = no disease control): 0

## Cc1cc(C(F)(F)F)nn1CC(=O)N1CCC(c2nc(C(=O)N3Cc4ccccc4C3)cs2)CC1 [compound 295]
Plasmopara viticola; [4]
  Test B disease rating (100 = 100% disease control, 0 = no disease control): 39
Phytophthora infestans [1]; [4]
  Test C disease rating (100 = 100% disease control, 0 = no disease control): 95
Phytophthora infestans [2]; [4]
  Test D disease rating (100 = 100% disease control, 0 = no disease control): 39
[3]; [4]
  Test E disease rating (100 = 100% disease control, 0 = no disease control): 0

## Cc1cc(C(F)(F)F)nn1CC(=O)N1CCC(c2nc(C(=O)N3CCc4ccccc4C3)cs2)CC1 [compound 296]
Plasmopara viticola; [4]
  Test B disease rating (100 = 100% disease control, 0 = no disease control): 82
Phytophthora infestans [1]; [4]
  Test C disease rating (100 = 100% disease control, 0 = no disease control): 100
Phytophthora infestans [2]; [4]
  Test D disease rating (100 = 100% disease control, 0 = no disease control): 93
[3]; [4]
  Test E disease rating (100 = 100% disease control, 0 = no disease control): 0

## COc1cc2c(cc1OC)CN(C(=O)c1csc(C3CCN(C(=O)Cn4nc(C(F)(F)F)cc4C)CC3)n1)CC2 [compound 297]
Plasmopara viticola; [4]
  Test B disease rating (100 = 100% disease control, 0 = no disease control): 39
Phytophthora infestans [1]; [4]
  Test C disease rating (100 = 100% disease control, 0 = no disease control): 63
Phytophthora infestans [2]; [4]
  Test D disease rating (100 = 100% disease control, 0 = no disease control): 33
[3]; [4]
  Test E disease rating (100 = 100% disease control, 0 = no disease control): 0

## Cc1cc(C(F)(F)F)nn1CC(=O)N1CCC(c2nc(C(=O)N3Cc4ccccc4C3C)cs2)CC1 (stereo not drawn) [compound 298]
Plasmopara viticola; tested at 10 ppm (**)
  Test B disease rating (100 = 100% disease control, 0 = no disease control): 57
Phytophthora infestans [1]; tested at 10 ppm (**)
  Test C disease rating (100 = 100% disease control, 0 = no disease control): 80
Phytophthora infestans [2]; tested at 10 ppm (**)
  Test D disease rating (100 = 100% disease control, 0 = no disease control): 0
[3]; tested at 10 ppm (**)
  Test E disease rating (100 = 100% disease control, 0 = no disease control): 0

## Cc1cc(C(F)(F)F)nn1CC(=O)N1CCC(c2nc(C(=O)N3CCC4CCCCC4C3)cs2)CC1 (stereo not drawn) [compound 299]
Plasmopara viticola; [4]
  Test B disease rating (100 = 100% disease control, 0 = no disease control): 83
Phytophthora infestans [1]; [4]
  Test C disease rating (100 = 100% disease control, 0 = no disease control): 99
Phytophthora infestans [2]; [4]
  Test D disease rating (100 = 100% disease control, 0 = no disease control): 96
[3]; [4]
  Test E disease rating (100 = 100% disease control, 0 = no disease control): 0

## Cc1cc(C(F)(F)F)nn1CC(=O)N1CCC(c2nc(C(=O)N3CCCC4CCCCC43)cs2)CC1 (stereo not drawn) [compound 300]
Plasmopara viticola; [4]
  Test B disease rating (100 = 100% disease control, 0 = no disease control): 62
Phytophthora infestans [1]; [4]
  Test C disease rating (100 = 100% disease control, 0 = no disease control): 97
Phytophthora infestans [2]; [4]
  Test D disease rating (100 = 100% disease control, 0 = no disease control): 58
[3]; [4]
  Test E disease rating (100 = 100% disease control, 0 = no disease control): 0

## Cc1cc(C(F)(F)F)nn1CC(=O)N1CCC(c2nc(C(=O)N3CCCCC3)cs2)CC1 [compound 307]
Plasmopara viticola; [4]
  Test B disease rating (100 = 100% disease control, 0 = no disease control): 79
Phytophthora infestans [1]; [4]
  Test C disease rating (100 = 100% disease control, 0 = no disease control): 100
Phytophthora infestans [2]; [4]
  Test D disease rating (100 = 100% disease control, 0 = no disease control): 26
[3]; [4]
  Test E disease rating (100 = 100% disease control, 0 = no disease control): 0

## Cc1cc(C(F)(F)F)nn1CC(=O)N1CCC(c2nc(C(=O)N3CCC(C)CC3)cs2)CC1 [compound 308]
Plasmopara viticola; [4]
  Test B disease rating (100 = 100% disease control, 0 = no disease control): 98
Phytophthora infestans [1]; [4]
  Test C disease rating (100 = 100% disease control, 0 = no disease control): 100
Phytophthora infestans [2]; [4]
  Test D disease rating (100 = 100% disease control, 0 = no disease control): 93
[3]; [4]
  Test E disease rating (100 = 100% disease control, 0 = no disease control): 0

## Cc1cc(C(F)(F)F)nn1CC(=O)N1CCC(c2nc(C(=O)N3CCC(C)(C)CC3)cs2)CC1 [compound 309]
Plasmopara viticola; [4]
  Test B disease rating (100 = 100% disease control, 0 = no disease control): 96
Phytophthora infestans [1]; [4]
  Test C disease rating (100 = 100% disease control, 0 = no disease control): 100
Phytophthora infestans [2]; [4]
  Test D disease rating (100 = 100% disease control, 0 = no disease control): 83
[3]; [4]
  Test E disease rating (100 = 100% disease control, 0 = no disease control): 0

## Cc1cc(C(F)(F)F)nn1CC(=O)N1CCC(c2nc(C(=O)N3CC=CCC3)cs2)CC1 [compound 310]
Plasmopara viticola; [4]
  Test B disease rating (100 = 100% disease control, 0 = no disease control): 47
Phytophthora infestans [1]; [4]
  Test C disease rating (100 = 100% disease control, 0 = no disease control): 73
Phytophthora infestans [2]; [4]
  Test D disease rating (100 = 100% disease control, 0 = no disease control): 9
[3]; [4]
  Test E disease rating (100 = 100% disease control, 0 = no disease control): 0

## Cc1cc(C(F)(F)F)nn1CC(=O)N1CCC(c2nc(C(=O)N3CC=C(c4ccccc4)CC3)cs2)CC1 [compound 311]
Plasmopara viticola; [4]
  Test B disease rating (100 = 100% disease control, 0 = no disease control): 31
Phytophthora infestans [1]; [4]
  Test C disease rating (100 = 100% disease control, 0 = no disease control): 83
Phytophthora infestans [2]; [4]
  Test D disease rating (100 = 100% disease control, 0 = no disease control): 0
[3]; [4]
  Test E disease rating (100 = 100% disease control, 0 = no disease control): 28

## Cc1cc(C(F)(F)F)nn1CC(=O)N1CCC(c2nc(C(=O)N3CCCC(C)C3)cs2)CC1 (stereo not drawn) [compound 312]
Plasmopara viticola; [4]
  Test B disease rating (100 = 100% disease control, 0 = no disease control): 91
Phytophthora infestans [1]; [4]
  Test C disease rating (100 = 100% disease control, 0 = no disease control): 100
Phytophthora infestans [2]; [4]
  Test D disease rating (100 = 100% disease control, 0 = no disease control): 80
[3]; [4]
  Test E disease rating (100 = 100% disease control, 0 = no disease control): 0
